Experimental data from patent US20180193453A1, “TREATMENT-RESISTANCE REDUCING AGENT FOR TREATMENT-RESISTANT CANCER” (NATIONAL UNIVERSITY CORPORATION HOKKAIDO UNIVERSITY, priority 2015, published 2018).

What was measured:
A549-DR cells = test: MTT cell viability assay with or without DOX; format: cell-based, human; details: DOX 1 μM, 72 hours, FIG. 7 upper
Description: Human lung adenocarcinoma cell line A549 was obtained from the American Type Cell Culture (ATCC, USA). Cell culture was carried out at 37° C. in an atmosphere of 5% CO2 using Dulbecco's Modified Eagle's Medium (DMEM) (SIGMA) supplemented with fetal bovine serum (at a final concentration of 10%), penicillin (at a final concentration of 100 U/mL) and streptomycin (at a final concentration of 100 μg/mL). A549 cells were cultured at 37° C. in an atmosphere of 5% CO2, in DMEM in which the DOX concentration was increased stepwise from 0.01 to 1 μM, and then cells acquiring DOX resistance were selected to generate a DOX-resistant A549 cell line (A549-DR). The resultant A549-DR cells maintained their drug resistance by exposure to 1 μM DOX.
A549-DS, A549-DR, and A549-DR-IL-34-KO cells were cultured in DMEM medium with or without DOX (at a final concentration of 1 μM). After 72 hours of culturing, an MTT assay was performed (using a cell proliferation determination kit, available from Roche Applied) to determine the viability of cells. Similarly, A549-DR cells were cultured in a medium with or without DOX in which an anti-IL-34 neutralizing antibody was added at a final concentration of 0.01 to 10 μg/mL, and the viability of cells was determined in a similar way.

A549-DR-IL-34-KO cells = test: MTT cell viability assay with or without DOX; format: cell-based, human; details: DOX 1 μM, 72 hours, FIG. 7 upper
A549-DR tumor = test: Tumor size in humanized NOG mice with DOX administration; format: in vivo; details: DOX 10 mg/kg/mouse intravenously, twice a week, 4 times, vs PBS, FIG. 8
A549-DR-IL-34-KO tumor = test: as above; format: in vivo; details: DOX 10 mg/kg/mouse intravenously, twice a week, 4 times, vs PBS, FIG. 8

## COc1cccc2c1C(=O)c1c(O)c3c(c(O)c1C2=O)C[C@@](O)(C(=O)CO)C[C@@H]3O[C@H]1C[C@H](N)[C@H](O)[C@H](C)O1 [DOX, doxorubicin]
A549-DR cells
  viability of cells: did not have a decreased viability
A549-DR-IL-34-KO cells
  viability of cells (sensitivity to DOX): restored the sensitivity to DOX
A549-DR tumor
  tumor size: did not change greatly
A549-DR-IL-34-KO tumor
  tumor size: significantly decreased
